The subject of experiment [1] is Candida albicans NERC 1594 strain. The experiment in a line: Test Example 1: growth inhibitory activity on Candida albicans (membrane filter method, colony count). The note with it: 2 g ripasudil monohydrochloride dihydrate in 270 mL phosphate buffer pH 7.2. It is filed as cell-based. On the procedure:
In order to examine ripasudil for the presence or absence of growth inhibitory activity on microorganisms (bacteria and fungi), the following tests were performed using Pseudomonas aeruginosa as a bacterium and Candida albicans as a fungus. Two grams of ripasudil monohydrochloride dihydrate were dissolved in 270 mL of phosphate buffer (pH 7.2) to obtain a dilute sample solution. A sample was obtained by mixing 0.5 mL of the test bacterial suspension with 50 mL of the dilute sample solution (note that a mixture of 0.5 mL of the test bacterial suspension and 50 mL of phosphate buffer (pH 7.2) was used as a control sample). […] After the culture, the number of colonies formed was counted (note that the test was performed twice, and an average value was determined). From the determined number of colonies, a growth inhibitory ratio (%) was calculated using the following equation: Growth inhibitory ratio (%)=|(the number of colonies for the control sample−the number of colonies for the sample)|/the number of colonies for the control sample×100 Candida albicans NERC 1594 strain was seeded on the Sabouraud-dextrose liquid medium (Merck Corporation) and cultured at 20 to 25° C. for 44 to 46 hours. […] After the culture, the number of colonies formed was counted (note that the test was performed twice, and an average value was determined). A growth inhibitory ratio (%) was also calculated.

In experiment [2] the test system is Pseudomonas aeruginosa NBRC 13275 strain. The experiment in a line: Test Example 1: growth inhibitory activity on Pseudomonas aeruginosa (membrane filter method, colony count). It is filed as cell-based. The note with it: 2 g ripasudil monohydrochloride dihydrate in 270 mL phosphate buffer pH 7.2. On the procedure: In order to examine ripasudil for the presence or absence of growth inhibitory activity on microorganisms (bacteria and fungi), the following tests were performed using Pseudomonas aeruginosa as a bacterium and Candida albicans as a fungus. Pseudomonas aeruginosa NBRC 13275 strain was seeded on the soybean-casein digest medium (Merck Corporation) and cultured at 30 to 35° C. for 20 to 22 hours. The culture was then diluted with peptone saline buffer (pH 7.0) to 1,000 CFU/mL or less to obtain a test bacterial suspension. Two grams of ripasudil monohydrochloride dihydrate were dissolved in 270 mL of phosphate buffer (pH 7.2) to obtain a dilute sample solution. A sample was obtained by mixing 0.5 mL of the test bacterial suspension with 50 mL of the dilute sample solution (note that a mixture of 0.5 mL of the test bacterial suspension and 50 mL of phosphate buffer (pH 7.2) was used as a control sample). […] After the culture, the number of colonies formed was counted (note that the test was performed twice, and an average value was determined). From the determined number of colonies, a growth inhibitory ratio (%) was calculated using the following equation: Growth inhibitory ratio (%)=|(the number of colonies for the control sample−the number of colonies for the sample)|/the number of colonies for the control sample×100

The conditions of experiment [3]: at a concentration of 0.001%; cited from earlier work.

This is an account of results in patent US10376523B2, “Aqueous composition containing ripasudil, or a salt, or a solvate thereof” (KOWA COMPANY, LTD., priority 2014, dated 2019).

Regarding `C[C@H]1CNCCCN1S(=O)(=O)c1cccc2cncc(F)c12` [ripasudil, 4-fluoro-5-[[(2S)-2-methyl-1,4-diazepan-1-yl]sulfonyl]isoquinoline], the “Number of Formed Colonies, Sample” value in experiment [1] (contact 30 minutes or longer, average of two tests, control sample 37 colonies) turned out to be 23; in experiment [2] (contact 30 minutes or longer, average of two tests, control sample 47 colonies), 0. Further, the “Growth Inhibitory Ratio” value in experiment [1] (versus control sample) was 37.8%; in experiment [2] (versus control sample), 100%.
Consider benzalkonium chloride, for which the antimicrobial activity entry in experiment [3] is “sufficient antimicrobial activity is not demonstrated”.
